Experimental data from patent US20110166196A1, “TREATMENT AND PROPHYLAXIS OF EPILEPSY AND FEBRILE SEIZURES” (priority 2008, published 2011).

Columns and labels:
[1] = system: excitatory synapses onto CA1 hippocampal interneurons; assay: Synaptic failure analysis using minimal stimulation; assay type: cell-based, rat; conditions: capsaicin 1 μM; pre-capsaicin 38.4±3.5%; n=5
Protocol: Slices were continuously perfused with ACSF warmed to 28-32° C. at a flow rate of 1-2 ml/min. Picrotoxin (100 μM) and D-AP5 (50 μM) were added to block GABAA receptor- and NMDAR-mediated synaptic transmission. Whole-cell patch clamp recordings were made from interneurons identified visually in the CA1 stratum radiatum of the hippocampus. […] Patch pipettes were filled with internal recording solution containing in mM: 117 cesium gluconate, 2.8 NaCl, 5 MgCl2, 20 HEPES, 2 ATP-Na^+, 0.3 GTP-Na^+ and 0.6 EGTA. In some experiments 2 μM capsazepine, 140 nM baicalein, or 250 μM GDPβS were also included in the intracellular patch pipette solution. In experiments with BAPTA-containing patch electrodes, EGTA was omitted from the intracellular solution and 25 or 40 mM BAPTA replaced a corresponding amount of cesium gluconate. EPSCs were stimulated at 0.1 Hz (100 μsec) using a bipolar stainless steel stimulating electrode placed in stratum radiatum at least 200 μm from the recorded cell. […] In early experiments, we measured rectification ratios of EPSCs evoked at +40 mV/−60 mV in the presence of 50 μM D-AP5, measured at the time of peak inward synaptic current seen at −70 mV (Lei and McBain, 2004).

[2] = system: synapses between CA3 and CA1 pyramidal cells; assay: Field EPSP recordings in hippocampal slices; assay type: cell-based, rat
Protocol: The maximal initial slope of fEPSPs was calculated using a LabVIEW-based program (National Instruments). The peak amplitude of each EPSC was measured by comparing a 10 msec time period immediately prior to the stimulus with the peak of the EPSC using this program as well. Occasionally polysynaptic responses were evoked, and in these cases, only the initial monosynaptic event was measured. To positively identify LTD, EPSCs measured every 10 seconds were averaged in 1 minute intervals. EPSC amplitude values were normalized to control pre-HFS EPSC amplitude values (baseline period of at least 5 minutes prior to HFS) and subjected to analysis of variance (ANOVA) repeated measures analysis with a post-hoc Dunnett's test (GraphPad Prism, Version 4). […] EPSC amplitude values 15 to 20 minutes post-HFS were compared between control LTD experiments and those carried out either in transgenic TRPV1^−/− mice, or in the presence of drug using a t-test (unpaired, two-tailed, with Welch's correction if the variances between the groups were unequal). To calculate the effects of capsaicin, 12-(S)-HPETE or WIN 55,212-2 application on basal excitatory glutamatergic transmission, normalized EPSC amplitudes or fEPSP slopes were averaged in the final 5 minutes of drug application and compared with EPSCs/EPSPs 5 minutes prior to drug application. In addition, to measure capsaicin's effects on holding current, the peak change in holding current was measured during bath application of 3 μM capsaicin. The n-values reported refer to the number of slices. All combined data are expressed as mean±the standard error of the mean (s.e.m.).

TRPV1 channels = molecular target: T1, TRPV1 channels (Mus musculus, UniProt Q704Y3); assay: Heat-ramp evoked inward current and depolarization in CA1 pyramidal neurons of wild-type mice; assay type: cell-based
T1 construct: whole-cell recordings from acutely prepared brain slices from wild type C57BL/6 mice; from tissue; host or cells: acute coronal hippocampal slices from P14-P20 wild-type C57BL/6 mice: CA1 pyramidal neurons
T1 sequence (Q704Y3 whole entry): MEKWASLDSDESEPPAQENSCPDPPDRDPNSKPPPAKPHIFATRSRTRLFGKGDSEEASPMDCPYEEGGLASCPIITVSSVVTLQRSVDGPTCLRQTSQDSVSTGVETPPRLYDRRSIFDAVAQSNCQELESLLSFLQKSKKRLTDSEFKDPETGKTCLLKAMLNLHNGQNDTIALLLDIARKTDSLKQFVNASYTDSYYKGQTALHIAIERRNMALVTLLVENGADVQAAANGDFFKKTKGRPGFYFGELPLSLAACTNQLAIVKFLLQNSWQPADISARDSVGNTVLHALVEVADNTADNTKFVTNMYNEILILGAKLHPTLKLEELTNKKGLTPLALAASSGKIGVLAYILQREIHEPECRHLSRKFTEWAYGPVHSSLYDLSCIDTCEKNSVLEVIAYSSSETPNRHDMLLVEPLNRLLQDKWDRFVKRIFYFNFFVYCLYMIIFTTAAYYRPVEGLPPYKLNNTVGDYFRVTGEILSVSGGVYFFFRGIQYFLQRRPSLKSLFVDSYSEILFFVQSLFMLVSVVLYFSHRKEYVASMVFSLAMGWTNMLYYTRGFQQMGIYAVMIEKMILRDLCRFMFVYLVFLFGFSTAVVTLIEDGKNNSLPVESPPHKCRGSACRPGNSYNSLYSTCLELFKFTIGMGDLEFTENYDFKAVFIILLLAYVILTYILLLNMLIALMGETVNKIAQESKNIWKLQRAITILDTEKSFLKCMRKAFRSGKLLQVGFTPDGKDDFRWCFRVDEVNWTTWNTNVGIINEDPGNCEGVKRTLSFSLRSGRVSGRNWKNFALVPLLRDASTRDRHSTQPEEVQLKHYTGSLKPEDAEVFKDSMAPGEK

Row | Compound | average synaptic failures in capsaicin [1] | fEPSP slopes after 10-15 minutes in capsaicin ([2]; 1 μM capsaicin, P=0.58, n=5) | effect on synaptic transmission at the CA3-CA1 synapse ([2]; 10 μM capsaicin, often with depression of presynaptic fiber volley) | heat-induced change of membrane potential in CA1 neurons (TRPV1 channels; 2 μM intracellular capsazepine, current clamp, ramp 30 to 42° C., absence 19.7±4.5 mV, n=6) | effect on heat-evoked current in CA1 pyramidal neuron (TRPV1 channels; bath-applied capsazepine 10 μM, voltage clamp, heat ramp)
1 | COc1cc(CNC(=O)CCCCC=CC(C)C)ccc1O [capsaicin, 8-methyl-N-vanillyl-6-nonenamide] | 73.5±7.8% | 102.8±5.4 % of pre-drug control values | depressed synaptic transmission | – | –
2 | Oc1cc2c(cc1O)CN(C(=S)NCCc1ccc(Cl)cc1)CCC2 [capsazepine] | – | – | – | 1.0±0.7 mV | blocked
